Results reported in US20180140578A1, “METHODS AND COMPOSITIONS FOR THE DIAGNOSIS AND SELECTIVE TREATMENT OF CANCER” (Board of Regents of the University of Texas System, priority 2016, published 2018).
Read-outs that look alike come from different tables or passages of the source.

Legend:
[1] = test system: H125; assay: IC50 assay, NSCLC cell lines (Cell Titer Glo, total ATP); format: cell-based; conditions: Homo sapiens
Method: (§1) Cells were plated at ˜15% confluence in a media comprising 5% concentration of fetal bovine serum supplemented with RPMI, which included 2 mM L-Glutamine in a 96 well dish. […] Following three days of incubation in a 5% CO2 incubator, the total ATP in each well was quantified using Cell Titer Glo (Promega). […] The solid lines represent the medians.

[2] = test system: H1373; assay: as above; format: cell-based; conditions: Homo sapiens
Method: as §1

[3] = test system: H1755; assay: as above; format: cell-based; conditions: Homo sapiens
Method: as §1

[4] = test system: H1975; assay: as above; format: cell-based; conditions: Homo sapiens
Method: as §1

[5] = test system: H2009; assay: as above; format: cell-based; conditions: Homo sapiens
Method: as §1

[6] = test system: H2122; assay: as above; format: cell-based; conditions: Homo sapiens
Method: as §1

[7] = test system: H2170; assay: as above; format: cell-based; conditions: Homo sapiens
Method: as §1

[8] = test system: H2452; assay: as above; format: cell-based; conditions: Homo sapiens
Method: as §1

[9] = test system: HCC2018; assay: as above; format: cell-based; conditions: Homo sapiens
Method: as §1

[10] = test system: HCC2814; assay: as above; format: cell-based; conditions: Homo sapiens
Method: as §1

[11] = test system: HCC366; assay: as above; format: cell-based; conditions: Homo sapiens
Method: as §1

[12] = test system: indisulam resistant HCT-116 clones; assay: Cell viability assay, indisulam resistant clones; format: cell-based, human
Method: The methods for generating a population of barcoded HCT-116 cells were described before (20). […] Clones that appeared after the selection was then expanded and barcode genotyped to identify six clones with unique barcodes. […] Source data for exome sequencing data is available under NCBI SRA accession SRP068238. Bortezomib resistant clones were isolated by selection with 5 nM bortezomib, and MLN4924 resistant clones with 40 nM MLN4924.
12-point dose responses were performed on 96-well assay plates with cell plating (1500-4000 cell per well) on day 1, compound addition on day 2, and survival measurement on day 5. Compounds were diluted in DMSO before adding to the cells. Final DMSO concentration was 0.5%. Cell survival assay was performed using CellTiter-Glo Luminescent Cell Viability Assay kit (Promega) that measures cellular ATP content. Luminescence was recorded by EnVison multimode plate reader (Perkin Elmer). IC50 was determined with GraphPad Prism using baseline correction (by normalizing to DMSO control), the asymmetric (five parameter) equation and least squares fit.

[13] = test system: pre-mRNA splicing in HCT-116 cells; assay: RNA-seq analysis of splicing changes, parental HCT-116; format: cell-based, human; conditions: 2 μM indisulam
Excerpt: RNAs were extracted using Quick-RNA MiniPrep kit (Zymo Research). After cleaning up genomic DNA contaminant with Turbo DNase (Life Technologies) and rRNA depletion, strand-specific cDNA libraries were generated using the TruSeq Stranded mRNA Sample Prep Kit (IIlumina) and were subjected to high throughput sequencing using
HiSeq2500 platform (Illumina) with 100-bp single-end reads. NGS QC Toolkit (v2.3.1) (49) was used to check the sequencing quality, and high-quality reads were aligned by TopHat (v2.0.8) (50) to human reference genome (hg19) along with the gene annotation data downloaded from Illumina's iGenomes (support.illumina.com/sequencing/sequencing_software/igenome.ilmn). The insert-size metrics required in TopHat execution and the correctness of strand specificity were estimated by mapping reads to human transcript sequences using Bowtie (v2.1.0) (51) and Picard-tools (v1.99) (picard.sourceforge.net). The htseq-count script distributed with the HTSeq Python package (0.6.1) (pypi.python.org/pypi/HTSeq) was employed for counting reads in genes considering the coding strands. Source data for RNA sequencing data is available under NCBI SRA accession SRP096666.
For the stringent detection of differential skipped exons and retained introns, a custom program called SpliceFisher was developed and it is downloadable at github.com/jiwoongbio/SpliceFisher. Exonic and intronic regions were defined as annotated in the reference genome. To estimate differential exon skipping events, the numbers of exon-junction reads (panels a and b in FIG. 16) and exon-skipping reads (panel c in FIG. 16) observed in a sample were compared to the numbers observed in another sample. […] Additionally, the number of reads mapped to the target region (panel d in FIG. 16) and other exonic regions of the gene (panel e in FIG. 16) were also compared between samples. The read counts were evaluated by multiple Fisher's exact tests in three two-by-two tables using R and then the p-values were adjusted using FDR by each comparison type. Differential alternative splicing events were identified with all three adjusted p-values less than 0.01. The differential alternative splice sites and mutually exclusive exons were additionally detected by a similar method using the numbers of splicing reads supporting each junction.

[14] = test system: HCC78 and H1373; assay: 3 day viability assay, U2AF1 mutant lung cancer cell lines; format: cell-based, human
Excerpt: HCC78 and H1373 non-small cell lung cancer cell lines harbor a heterozygous mutations (C to T) in U2AF1 leading to a Serine to Phenylalanine mutation at position 34. FIG. 19 depicts Sanger sequencing of a RT-PCR product from both cell lines. […] Thus, mutations in splicing factor U2AF1 can be used as a biomarker for treating cancer, in a DCAF15 independent manner or together with the DCAF15 biomarker.

[15] = read-out: Indisulam IC50 (log 10) (converted), U2AF1 WT
[16] = read-out: Indisulam IC50, U2AF1 WT

## NS(=O)(=O)c1ccc(S(=O)(=O)Nc2cccc3c(Cl)c[nH]c23)cc1 [Indisulam, indisulam]
[1]; NCI-H125, read-out: Indisulam IC50 (log 10) (converted), U2AF1 WT
  IC50: 10.8 µM
[1]; NCI-H125, read-out: Indisulam IC50, U2AF1 WT
  IC50: 10.8 µM
[2]; NCI-H1373, read-out: Indisulam IC50 (log 10) (converted), U2AF1 S34F
  IC50: 0.23 µM
[2]; NCI-H1373, read-out: Indisulam IC50, U2AF1 S34F
  IC50: 0.23 µM
[3]; NCI-H1755, read-out: Indisulam IC50 (log 10) (converted), U2AF1 WT
  IC50: 252 µM
[3]; NCI-H1755, read-out: Indisulam IC50, U2AF1 WT
  IC50: 252 µM
[4]; NCI-H1975, read-out: Indisulam IC50 (log 10) (converted), U2AF1 WT
  IC50: 1.51 µM
[4]; NCI-H1975, read-out: Indisulam IC50, U2AF1 WT
  IC50: 1.51 µM
[5]; NCI-H2009, read-out: Indisulam IC50 (log 10) (converted), U2AF1 WT
  IC50: 17.4 µM
[5]; NCI-H2009, read-out: Indisulam IC50, U2AF1 WT
  IC50: 17.4 µM
[6]; NCI-H2122, read-out: Indisulam IC50 (log 10) (converted), U2AF1 WT
  IC50: 18.8 µM
[6]; NCI-H2122, read-out: Indisulam IC50, U2AF1 WT
  IC50: 18.8 µM
[7]; NCI-H2170, read-out: Indisulam IC50 (log 10) (converted), U2AF1 WT
  IC50: 29.6 µM
[7]; NCI-H2170, read-out: Indisulam IC50, U2AF1 WT
  IC50: 29.6 µM
[8]; NCI-H2452, read-out: Indisulam IC50 (log 10) (converted), U2AF1 WT
  IC50: 1.21 µM
[8]; NCI-H2452, read-out: Indisulam IC50, U2AF1 WT
  IC50: 1.21 µM
[9]; [15]
  IC50: 6.48 µM
[9]; [16]
  IC50: 6.48 µM
[10]; [15]
  IC50: 8.72 µM
[10]; [16]
  IC50: 8.72 µM
[11]; [15]
  IC50: 6.91 µM
[11]; [16]
  IC50: 6.91 µM
[12]; Homo sapiens, HCT-116
  IC50: 9.3 µM
[12]; five of six clones, concentrations as high as 50
  sensitivity of indisulam resistant clones: insensitive
[12]; sixth indisulam resistant clone
  times less sensitive than the parental HCT-116 cells: 17 times
[13]; 6 hours
  exon skipping events: 327
  introns retained: 107
[13]; 12 hours
  exon skipping events: 837
  introns retained: 303
[14]
  sensitivity of cancer cell lines harboring a mutation in U2AF1: sensitive
